# Laboratory results: article PMC6032158, “Structure–Activity Relationship of Piplartine and Synthetic Analogues against Schistosoma mansoni and Cytotoxicity to Mammalian Cells” (International Journal of Molecular Sciences, 2018)
# Entries after “also recorded” stand apart in the source; their conditions may differ.
# How the values were obtained:
# [1] = test system: murine fibroblast (NIH-3T3) cells; assay: MTT cytotoxicity assay in murine fibroblasts; assay type: cell-based
# Outline: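 NIH-3T3 cells exposed 24 h to samples at 25–800 µg/mL in 3% DMSO, with 3% DMSO as control. MTT (5 mg/mL stock) added for 2 h, formazan dissolved in DMSO, absorbance read at 595 nm.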
# [2] = test system: J774A.1 cells; assay: Cell death mechanism, annexin-V FITC / propidium iodide staining by flow cytometry; assay type: cell-based, mouse; conditions: J774A.1, 24 h; piplartine 25 μg/mL, 14B 400 μg/mL
# Procedure: Cells were then treated with 2 µL of annexin-V FITC (Apoptosis Detection Kit; BD Biosciences, Franklin Lakes, NJ, USA) and 2 µL of propidium iodide (PI, 50 µg/mL) for 15 min in the dark at room temperature. Next, 100 µL binding buffer was added and samples were analysed by flow cytometry (BD LSFortessa^TM, Franklin Lakes, NJ, USA). A total of 20,000 events were collected per sample.
# [3] = test system: 49-day-old S. mansoni adult worms; assay: In vitro experiments with adult worms of S. mansoni (mortality, motor activity); assay type: cell-based, Schistosoma mansoni; conditions: for Dead Worms (%) F / Motor Activity Reduction (%) Significant F / Motor Activity Reduction (%) Slight F: female worms; for Dead Worms (%) M / Motor Activity Reduction (%) Significant M / Motor Activity Reduction (%) Slight M: male worms
# Outline: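 BH-strain worm pairs recovered from hamsters 49 days post-infection, washed in RPMI 1640 with penicillin, streptomycin and amphotericin B, and cultured as mated pairs with or without drug for 96 h. Motor activity changes and death were scored by microscopy.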
smiles,measurement,setting,value
O=C(/C=C/c1ccc2c(c1)OCO2)N1CCCC1 [Compound 14B],effect on NIH-3T3 cell viability (in words),"[1]; MTT, 24 h exposure, 25 to 800 µg/mL","considerable reduction in cell viability at concentrations of 400 and 800 μg/mL; also recorded: showed toxicity at 200, 400 and 800 μg/mL"
same,Emax at 800 µg/mL,"[1]; Mus musculus, NIH3T3, 24 h, decrease in cell viability at the maximum concentration tested (800 μg/mL), NIH-3T3, 24 h",83.64 ± 0.47%
same,annexin-V FITC staining (apoptosis marker) vs DMEM negative control (in words),[2],significant (p < 0.05) increase in annexin-V FITC staining
same,Dead Worms (%) F,"[3]; 5 µM, 24 h",0%
same,Motor Activity Reduction (%) Significant F,"[3]; 5 µM, 24 h",0%
same,Motor Activity Reduction (%) Slight F,"[3]; 5 µM, 24 h",0%
same,Dead Worms (%) M,"[3]; 5 µM, 24 h",0%
same,Motor Activity Reduction (%) Significant M,"[3]; 5 µM, 24 h",0%
same,Motor Activity Reduction (%) Slight M,"[3]; 5 µM, 24 h",0%
same,Dead Worms (%) F,"[3]; 5 µM, 48 h",0%
same,Motor Activity Reduction (%) Significant F,"[3]; 5 µM, 48 h",0%
same,Motor Activity Reduction (%) Slight F,"[3]; 5 µM, 48 h",0%
same,Dead Worms (%) M,"[3]; 5 µM, 48 h",0%
same,Motor Activity Reduction (%) Significant M,"[3]; 5 µM, 48 h",0%
same,Motor Activity Reduction (%) Slight M,"[3]; 5 µM, 48 h",0%
same,Dead Worms (%) F,"[3]; 5 µM, 72 h",0%
same,Motor Activity Reduction (%) Significant F,"[3]; 5 µM, 72 h",0%
same,Motor Activity Reduction (%) Slight F,"[3]; 5 µM, 72 h",0%
same,Dead Worms (%) M,"[3]; 5 µM, 72 h",0%
same,Motor Activity Reduction (%) Significant M,"[3]; 5 µM, 72 h",0%
same,Motor Activity Reduction (%) Slight M,"[3]; 5 µM, 72 h",0%
same,Dead Worms (%) F,"[3]; 5 µM, 96 h",0%
same,Motor Activity Reduction (%) Significant F,"[3]; 5 µM, 96 h",0%
same,Motor Activity Reduction (%) Slight F,"[3]; 5 µM, 96 h",0%
same,Dead Worms (%) M,"[3]; 5 µM, 96 h",0%
same,Motor Activity Reduction (%) Significant M,"[3]; 5 µM, 96 h",0%
same,Motor Activity Reduction (%) Slight M,"[3]; 5 µM, 96 h",0%
same,Dead Worms (%) F,"[3]; 10 µM, 24 h",0%
same,Motor Activity Reduction (%) Significant F,"[3]; 10 µM, 24 h",0%
same,Motor Activity Reduction (%) Slight F,"[3]; 10 µM, 24 h",0%
same,Dead Worms (%) M,"[3]; 10 µM, 24 h",0%
same,Motor Activity Reduction (%) Significant M,"[3]; 10 µM, 24 h",0%
same,Motor Activity Reduction (%) Slight M,"[3]; 10 µM, 24 h",0%
same,Dead Worms (%) F,"[3]; 10 µM, 48 h",0%
same,Motor Activity Reduction (%) Significant F,"[3]; 10 µM, 48 h",0%
same,Motor Activity Reduction (%) Slight F,"[3]; 10 µM, 48 h",0%
same,Dead Worms (%) M,"[3]; 10 µM, 48 h",0%
same,Motor Activity Reduction (%) Significant M,"[3]; 10 µM, 48 h",0%
same,Motor Activity Reduction (%) Slight M,"[3]; 10 µM, 48 h",0%
same,Dead Worms (%) F,"[3]; 10 µM, 72 h",0%
same,Motor Activity Reduction (%) Significant F,"[3]; 10 µM, 72 h",0%
same,Motor Activity Reduction (%) Slight F,"[3]; 10 µM, 72 h",0%
same,Dead Worms (%) M,"[3]; 10 µM, 72 h",0%
same,Motor Activity Reduction (%) Significant M,"[3]; 10 µM, 72 h",0%
same,Motor Activity Reduction (%) Slight M,"[3]; 10 µM, 72 h",0%
same,Dead Worms (%) F,"[3]; 10 µM, 96 h",0%
same,Motor Activity Reduction (%) Significant F,"[3]; 10 µM, 96 h",0%
same,Motor Activity Reduction (%) Slight F,"[3]; 10 µM, 96 h",0%
same,Dead Worms (%) M,"[3]; 10 µM, 96 h",0%
same,Motor Activity Reduction (%) Significant M,"[3]; 10 µM, 96 h",0%
same,Motor Activity Reduction (%) Slight M,"[3]; 10 µM, 96 h",0%
same,Dead Worms (%) F,"[3]; 25 µM, 24 h",0%
same,Motor Activity Reduction (%) Significant F,"[3]; 25 µM, 24 h",0%
same,Motor Activity Reduction (%) Slight F,"[3]; 25 µM, 24 h",0%
same,Dead Worms (%) M,"[3]; 25 µM, 24 h",0%
same,Motor Activity Reduction (%) Significant M,"[3]; 25 µM, 24 h",0%
same,Motor Activity Reduction (%) Slight M,"[3]; 25 µM, 24 h",0%
same,Dead Worms (%) F,"[3]; 25 µM, 48 h",0%
same,Motor Activity Reduction (%) Significant F,"[3]; 25 µM, 48 h",0%
same,Motor Activity Reduction (%) Slight F,"[3]; 25 µM, 48 h",0%
same,Dead Worms (%) M,"[3]; 25 µM, 48 h",0%
same,Motor Activity Reduction (%) Significant M,"[3]; 25 µM, 48 h",0%
same,Motor Activity Reduction (%) Slight M,"[3]; 25 µM, 48 h",0%
same,Dead Worms (%) F,"[3]; 25 µM, 72 h",0%
same,Motor Activity Reduction (%) Significant F,"[3]; 25 µM, 72 h",0%
same,Motor Activity Reduction (%) Slight F,"[3]; 25 µM, 72 h",0%
same,Dead Worms (%) M,"[3]; 25 µM, 72 h",0%
same,Motor Activity Reduction (%) Significant M,"[3]; 25 µM, 72 h",0%
same,Motor Activity Reduction (%) Slight M,"[3]; 25 µM, 72 h",0%
same,Dead Worms (%) F,"[3]; 25 µM, 96 h",0%
same,Motor Activity Reduction (%) Significant F,"[3]; 25 µM, 96 h",0%
same,Motor Activity Reduction (%) Slight F,"[3]; 25 µM, 96 h",0%
same,Dead Worms (%) M,"[3]; 25 µM, 96 h",0%
same,Motor Activity Reduction (%) Significant M,"[3]; 25 µM, 96 h",0%
same,Motor Activity Reduction (%) Slight M,"[3]; 25 µM, 96 h",0%
same,Dead Worms (%) F,"[3]; 50 µM, 24 h",0%
same,Motor Activity Reduction (%) Significant F,"[3]; 50 µM, 24 h",0%
same,Motor Activity Reduction (%) Slight F,"[3]; 50 µM, 24 h",0%
same,Dead Worms (%) M,"[3]; 50 µM, 24 h",0%
same,Motor Activity Reduction (%) Significant M,"[3]; 50 µM, 24 h",0%
same,Motor Activity Reduction (%) Slight M,"[3]; 50 µM, 24 h",0%
same,Dead Worms (%) F,"[3]; 50 µM, 48 h",0%
same,Motor Activity Reduction (%) Significant F,"[3]; 50 µM, 48 h",0%
same,Motor Activity Reduction (%) Slight F,"[3]; 50 µM, 48 h",0%
same,Dead Worms (%) M,"[3]; 50 µM, 48 h",0%
same,Motor Activity Reduction (%) Significant M,"[3]; 50 µM, 48 h",0%
same,Motor Activity Reduction (%) Slight M,"[3]; 50 µM, 48 h",0%
same,Dead Worms (%) F,"[3]; 50 µM, 72 h",0%
same,Motor Activity Reduction (%) Significant F,"[3]; 50 µM, 72 h",0%
same,Motor Activity Reduction (%) Slight F,"[3]; 50 µM, 72 h",0%
same,Dead Worms (%) M,"[3]; 50 µM, 72 h",0%
same,Motor Activity Reduction (%) Significant M,"[3]; 50 µM, 72 h",0%
same,Motor Activity Reduction (%) Slight M,"[3]; 50 µM, 72 h",0%
same,Dead Worms (%) F,"[3]; 50 µM, 96 h",0%
same,Motor Activity Reduction (%) Significant F,"[3]; 50 µM, 96 h",0%
same,Motor Activity Reduction (%) Slight F,"[3]; 50 µM, 96 h",0%
same,Dead Worms (%) M,"[3]; 50 µM, 96 h",0%
same,Motor Activity Reduction (%) Significant M,"[3]; 50 µM, 96 h",0%
same,Motor Activity Reduction (%) Slight M,"[3]; 50 µM, 96 h",0%
same,activity against S. mansoni adult worms (in words),"[3]; analogues 50, 25, 10 and 5 μM, piplartine 5 and 10 μM, up to 96 h",loss of biological activity against S. mansoni
